Reference: ChEMBL document CHEMBL3232829, “Synthesis and multitarget biological profiling of a novel family of rhein derivatives as disease-modifying anti-Alzheimer agents” (J Med Chem, 2014)
Calls of active or inactive are those of the source. The calls are words filed in the database; no cut-off is given here.

Biological target: Amyloid-beta precursor protein (Homo sapiens) (UniProt P05067)
Assay: Inhibition of aggregation of amyloid beta-42 (unknown origin) expressed in Escherichia coli BL21 (DE3) assessed as amyloid fibril formation at 10 uM after 24 hrs by thioflavin S fluorescence method
Settings: not given

Sequence of Amyloid-beta precursor protein (Homo sapiens) (P05067 whole entry): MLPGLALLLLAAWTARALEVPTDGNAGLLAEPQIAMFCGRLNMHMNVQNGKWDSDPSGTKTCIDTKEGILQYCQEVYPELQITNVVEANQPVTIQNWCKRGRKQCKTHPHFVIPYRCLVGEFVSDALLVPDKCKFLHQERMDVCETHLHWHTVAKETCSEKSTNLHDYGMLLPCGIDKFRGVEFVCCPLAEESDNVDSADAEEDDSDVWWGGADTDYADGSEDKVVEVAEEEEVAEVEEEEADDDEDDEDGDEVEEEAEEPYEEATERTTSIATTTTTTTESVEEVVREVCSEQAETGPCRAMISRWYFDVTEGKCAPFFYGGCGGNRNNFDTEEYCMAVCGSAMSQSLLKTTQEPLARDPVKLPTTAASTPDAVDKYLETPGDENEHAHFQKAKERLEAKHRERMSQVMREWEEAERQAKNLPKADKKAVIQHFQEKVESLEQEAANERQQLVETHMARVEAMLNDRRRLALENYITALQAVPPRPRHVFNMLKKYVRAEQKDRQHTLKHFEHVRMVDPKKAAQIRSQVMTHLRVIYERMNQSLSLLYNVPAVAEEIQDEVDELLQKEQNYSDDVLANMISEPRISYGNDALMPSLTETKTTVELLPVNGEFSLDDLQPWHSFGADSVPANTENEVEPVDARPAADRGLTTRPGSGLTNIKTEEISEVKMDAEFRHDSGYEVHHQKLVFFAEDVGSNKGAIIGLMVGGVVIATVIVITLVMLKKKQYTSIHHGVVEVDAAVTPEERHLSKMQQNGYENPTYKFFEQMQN

Row | Compound | inhibition [%]
1 | CC1=CC2Cc3nc4cc(Cl)ccc4c(NCCCCCCCCCCNC(=O)c4cc(O)c5c(c4)C(=O)c4cccc(O)c4C5=O)c3C(C1)C2.Cl (racemic) | 43.3
2 | CC1=CC2Cc3nc4cc(Cl)ccc4c(NCCCCCNC(=O)c4cc(O)c5c(c4)C(=O)c4cccc(O)c4C5=O)c3C(C1)C2.Cl (racemic) | 68
3 | CC1=CC2Cc3nc4cc(Cl)ccc4c(NCCCCCCCCCNC(=O)c4cc(O)c5c(c4)C(=O)c4cccc(O)c4C5=O)c3C(C1)C2.Cl (racemic) | 47.9
4 | CC1=CC2Cc3nc4cc(Cl)ccc4c(NCCCCCCCNC(=O)c4cc(O)c5c(c4)C(=O)c4cccc(O)c4C5=O)c3C(C1)C2.Cl (racemic) | 63.2
5 | CC1=CC2Cc3nc4cc(Cl)ccc4c(NCCCCCCCCNC(=O)c4cc(O)c5c(c4)C(=O)c4cccc(O)c4C5=O)c3C(C1)C2.Cl (racemic) | 50.2

Biological target: T1, Beta-secretase 1 (Homo sapiens, UniProt P56817)
T1 sequence (P56817 whole entry): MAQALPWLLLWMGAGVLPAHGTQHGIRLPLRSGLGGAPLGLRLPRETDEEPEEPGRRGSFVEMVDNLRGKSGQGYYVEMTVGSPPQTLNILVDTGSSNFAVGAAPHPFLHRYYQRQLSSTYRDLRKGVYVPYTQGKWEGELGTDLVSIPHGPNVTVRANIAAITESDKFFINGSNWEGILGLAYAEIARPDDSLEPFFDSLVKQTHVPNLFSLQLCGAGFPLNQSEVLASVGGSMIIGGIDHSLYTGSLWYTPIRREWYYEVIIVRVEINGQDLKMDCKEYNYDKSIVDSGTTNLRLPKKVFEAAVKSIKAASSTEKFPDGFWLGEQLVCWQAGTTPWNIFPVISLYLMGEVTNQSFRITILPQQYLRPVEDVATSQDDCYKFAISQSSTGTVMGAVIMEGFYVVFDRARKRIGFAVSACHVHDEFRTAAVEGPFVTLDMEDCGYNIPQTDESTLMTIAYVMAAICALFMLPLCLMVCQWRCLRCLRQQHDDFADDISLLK
Settings: 5 uM

Row | Compound | inhibition [%]
6 | CC1=C[C@@H]2Cc3nc4cc(Cl)ccc4c(N)c3[C@H](C1)C2 | 14

Biological target: Acetylcholinesterase (Homo sapiens, UniProt P22303)
Sequence (P22303 whole entry): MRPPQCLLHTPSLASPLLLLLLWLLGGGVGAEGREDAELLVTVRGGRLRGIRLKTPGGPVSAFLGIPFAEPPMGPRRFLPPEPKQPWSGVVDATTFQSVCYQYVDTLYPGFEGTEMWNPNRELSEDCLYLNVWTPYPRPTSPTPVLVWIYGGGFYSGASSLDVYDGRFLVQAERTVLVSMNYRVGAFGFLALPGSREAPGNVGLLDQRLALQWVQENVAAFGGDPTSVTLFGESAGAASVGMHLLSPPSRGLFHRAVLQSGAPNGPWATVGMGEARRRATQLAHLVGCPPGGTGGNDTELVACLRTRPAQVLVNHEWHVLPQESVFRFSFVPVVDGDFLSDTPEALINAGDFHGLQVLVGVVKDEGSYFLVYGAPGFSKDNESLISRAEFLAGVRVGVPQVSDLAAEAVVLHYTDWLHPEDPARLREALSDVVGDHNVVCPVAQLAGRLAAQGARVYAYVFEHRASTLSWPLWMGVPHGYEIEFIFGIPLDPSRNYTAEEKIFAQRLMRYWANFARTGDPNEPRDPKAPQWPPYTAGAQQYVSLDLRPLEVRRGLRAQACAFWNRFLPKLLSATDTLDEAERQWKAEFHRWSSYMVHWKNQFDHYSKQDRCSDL
Settings: not given

Row | Compound | IC50 [nM]
7 | CC1=CC2Cc3nc4cc(Cl)ccc4c(NCCCCCNC(=O)c4cc(O)c5c(c4)C(=O)c4cccc(O)c4C5=O)c3C(C1)C2.Cl (racemic) | 1.07
8 | CC1=CC2Cc3nc4cc(Cl)ccc4c(NCCCCCCCNC(=O)c4cc(O)c5c(c4)C(=O)c4cccc(O)c4C5=O)c3C(C1)C2.Cl (racemic) | 3.18

Biological target: T1, Beta-secretase 1
Assay: Inhibition of human recombinant BACE1 using methoxycoumarin-Ser-Glu-Val-Asn-Leu-Asp-Ala-Glu-Phe-Lys-dinitrophenyl as substrate at 1 uM preincubated for 1 hr by FRET assay
Settings: not given

Row | Compound | inhibition
9 | CC1=CC2Cc3nc4cc(Cl)ccc4c(NCCCCCNC(=O)c4cc(O)c5c(c4)C(=O)c4cccc(O)c4C5=O)c3C(C1)C2.Cl (racemic) | inactive
10 | CC1=CC2Cc3nc4cc(Cl)ccc4c(NCCCCCCCNC(=O)c4cc(O)c5c(c4)C(=O)c4cccc(O)c4C5=O)c3C(C1)C2.Cl (racemic) | inactive

Biological target: T1, Beta-secretase 1
Assay: Inhibition of human recombinant BACE1 using methoxycoumarin-Ser-Glu-Val-Asn-Leu-Asp-Ala-Glu-Phe-Lys-dinitrophenyl as substrate preincubated for 1 hr by FRET assay
Settings: read-out: IC50

Row | Compound | IC50 [nM]
11 | CC1=C[C@H]2Cc3nc4cc(Cl)ccc4c(N)c3[C@@H](C1)C2.Cl | > 5000
12 | CC1=CC2Cc3nc4cc(Cl)ccc4c(NCCCCCCCCCCNC(=O)c4cc(O)c5c(c4)C(=O)c4cccc(O)c4C5=O)c3C(C1)C2.Cl (racemic) | 1190
13 | CC1=C[C@@H]2Cc3nc4cc(Cl)ccc4c(N)c3[C@H](C1)C2 | > 5000
14 | CC1=CC2Cc3nc4cc(Cl)ccc4c(NCCCCCCCCCNC(=O)c4cc(O)c5c(c4)C(=O)c4cccc(O)c4C5=O)c3C(C1)C2.Cl (racemic) | 120
15 | CC1=CC2Cc3nc4cc(Cl)ccc4c(NCCCCCCCCNC(=O)c4cc(O)c5c(c4)C(=O)c4cccc(O)c4C5=O)c3C(C1)C2.Cl (racemic) | 980

Biological target: Cholinesterase (Homo sapiens, UniProt P06276)
Sequence (P06276 whole entry): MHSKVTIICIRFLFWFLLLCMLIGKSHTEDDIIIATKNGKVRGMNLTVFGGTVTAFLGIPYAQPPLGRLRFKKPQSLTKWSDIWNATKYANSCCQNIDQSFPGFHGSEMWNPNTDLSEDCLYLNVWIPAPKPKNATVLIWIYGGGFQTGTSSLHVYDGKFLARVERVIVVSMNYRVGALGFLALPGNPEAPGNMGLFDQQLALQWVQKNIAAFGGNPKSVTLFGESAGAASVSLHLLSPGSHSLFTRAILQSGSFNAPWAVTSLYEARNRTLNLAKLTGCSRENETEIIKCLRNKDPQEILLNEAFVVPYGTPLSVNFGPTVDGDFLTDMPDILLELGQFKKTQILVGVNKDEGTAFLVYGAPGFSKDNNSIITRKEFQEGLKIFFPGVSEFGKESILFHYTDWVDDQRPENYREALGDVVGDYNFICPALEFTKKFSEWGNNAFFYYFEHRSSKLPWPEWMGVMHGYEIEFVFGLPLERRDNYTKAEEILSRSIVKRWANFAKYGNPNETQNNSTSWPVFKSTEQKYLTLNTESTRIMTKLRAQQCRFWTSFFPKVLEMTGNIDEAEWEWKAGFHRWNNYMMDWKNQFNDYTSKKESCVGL
Assay: Inhibition of human serum BChE using butyrylthiocholine iodide as substrate preincubated for 20 mins by Ellman's method
Settings: not given

Row | Compound | IC50 [nM]
16 | CC1=CC2Cc3nc4cc(Cl)ccc4c(NCCCCCNC(=O)c4cc(O)c5c(c4)C(=O)c4cccc(O)c4C5=O)c3C(C1)C2.Cl (racemic) | 950
17 | CC1=CC2Cc3nc4cc(Cl)ccc4c(NCCCCCCCNC(=O)c4cc(O)c5c(c4)C(=O)c4cccc(O)c4C5=O)c3C(C1)C2.Cl (racemic) | 1460

Biological target: Microtubule-associated protein tau (Homo sapiens) (UniProt P10636)
Sequence (P10636 whole entry): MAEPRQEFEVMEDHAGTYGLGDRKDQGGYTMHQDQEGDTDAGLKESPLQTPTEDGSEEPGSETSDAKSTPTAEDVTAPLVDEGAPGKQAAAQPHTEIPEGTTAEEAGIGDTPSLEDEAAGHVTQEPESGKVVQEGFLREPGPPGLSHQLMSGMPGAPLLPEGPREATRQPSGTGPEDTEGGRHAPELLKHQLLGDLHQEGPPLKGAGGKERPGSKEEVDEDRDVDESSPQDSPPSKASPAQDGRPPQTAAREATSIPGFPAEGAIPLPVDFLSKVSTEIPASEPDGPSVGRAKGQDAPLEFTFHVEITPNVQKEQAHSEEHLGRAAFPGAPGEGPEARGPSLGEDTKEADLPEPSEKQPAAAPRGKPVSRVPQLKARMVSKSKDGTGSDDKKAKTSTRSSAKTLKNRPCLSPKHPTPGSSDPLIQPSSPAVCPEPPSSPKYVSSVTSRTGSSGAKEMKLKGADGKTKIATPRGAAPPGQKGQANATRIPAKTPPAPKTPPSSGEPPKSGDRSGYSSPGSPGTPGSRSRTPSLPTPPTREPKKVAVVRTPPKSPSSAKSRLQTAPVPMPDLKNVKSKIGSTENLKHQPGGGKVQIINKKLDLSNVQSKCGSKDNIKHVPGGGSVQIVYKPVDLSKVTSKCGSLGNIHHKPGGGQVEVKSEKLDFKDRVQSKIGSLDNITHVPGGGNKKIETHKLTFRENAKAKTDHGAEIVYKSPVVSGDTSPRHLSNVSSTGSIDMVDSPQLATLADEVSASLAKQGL
Assay: Inhibition of aggregation of tau protein (unknown origin) expressed in Escherichia coli BL21 (DE3) assessed as amyloid fibril formation at 10 uM after 24 hrs by thioflavin S fluorescence method
Settings: not given

Row | Compound | inhibition [%]
18 | CC1=CC2Cc3nc4cc(Cl)ccc4c(NCCCCCCCCCCNC(=O)c4cc(O)c5c(c4)C(=O)c4cccc(O)c4C5=O)c3C(C1)C2.Cl (racemic) | 57.1
19 | CC1=CC2Cc3nc4cc(Cl)ccc4c(NCCCCCNC(=O)c4cc(O)c5c(c4)C(=O)c4cccc(O)c4C5=O)c3C(C1)C2.Cl (racemic) | 43.7
20 | CC1=CC2Cc3nc4cc(Cl)ccc4c(NCCCCCCCCCNC(=O)c4cc(O)c5c(c4)C(=O)c4cccc(O)c4C5=O)c3C(C1)C2.Cl (racemic) | 29.6
21 | CC1=CC2Cc3nc4cc(Cl)ccc4c(NCCCCCCCNC(=O)c4cc(O)c5c(c4)C(=O)c4cccc(O)c4C5=O)c3C(C1)C2.Cl (racemic) | 52
22 | CC1=CC2Cc3nc4cc(Cl)ccc4c(NCCCCCCCCNC(=O)c4cc(O)c5c(c4)C(=O)c4cccc(O)c4C5=O)c3C(C1)C2.Cl (racemic) | 29.2

Tested on: not listed separately
Assay: Permeability of the compound by PAMPA assay
Format: physicochemical
Settings: read-out: permeability

Row | Compound | Papp [×10⁻⁶ cm/s]
23 | CC1=C[C@H]2Cc3nc4cc(Cl)ccc4c(N)c3[C@@H](C1)C2.Cl | 25.4
24 | CC1=CC2Cc3nc4cc(Cl)ccc4c(NCCCCCCCCCCNC(=O)c4cc(O)c5c(c4)C(=O)c4cccc(O)c4C5=O)c3C(C1)C2.Cl (racemic) | 18.1
25 | CC1=CC2Cc3nc4cc(Cl)ccc4c(NCCCCCNC(=O)c4cc(O)c5c(c4)C(=O)c4cccc(O)c4C5=O)c3C(C1)C2.Cl (racemic) | 20
26 | CC1=C[C@@H]2Cc3nc4cc(Cl)ccc4c(N)c3[C@H](C1)C2 | 23.6
27 | CC1=CC2Cc3nc4cc(Cl)ccc4c(NCCCCCCCCCNC(=O)c4cc(O)c5c(c4)C(=O)c4cccc(O)c4C5=O)c3C(C1)C2.Cl (racemic) | 21.5
28 | CC1=CC2Cc3nc4cc(Cl)ccc4c(NCCCCCCCNC(=O)c4cc(O)c5c(c4)C(=O)c4cccc(O)c4C5=O)c3C(C1)C2.Cl (racemic) | 27.5
29 | CC1=CC2Cc3nc4cc(Cl)ccc4c(NCCCCCCCCNC(=O)c4cc(O)c5c(c4)C(=O)c4cccc(O)c4C5=O)c3C(C1)C2.Cl (racemic) | 22.4

Biological target: Amyloid-beta precursor protein (Homo sapiens) (UniProt P05067)
Assay: Inhibition of amyloid beta-42 (unknown origin) aggregation assessed as amyloid fibril formation at 10 uM after 24 hrs by thioflavin T fluorescence method
Settings: not given

Row | Compound | inhibition [%]
30 | CC1=C[C@H]2Cc3nc4cc(Cl)ccc4c(N)c3[C@@H](C1)C2.Cl | 13.2
31 | CC1=CC2Cc3nc4cc(Cl)ccc4c(NCCCCCCCCCCNC(=O)c4cc(O)c5c(c4)C(=O)c4cccc(O)c4C5=O)c3C(C1)C2.Cl (racemic) | 40.9
32 | CC1=CC2Cc3nc4cc(Cl)ccc4c(NCCCCCNC(=O)c4cc(O)c5c(c4)C(=O)c4cccc(O)c4C5=O)c3C(C1)C2.Cl (racemic) | 38.7
33 | CC1=C[C@@H]2Cc3nc4cc(Cl)ccc4c(N)c3[C@H](C1)C2 | 11.5
34 | CC1=CC2Cc3nc4cc(Cl)ccc4c(NCCCCCCCCCNC(=O)c4cc(O)c5c(c4)C(=O)c4cccc(O)c4C5=O)c3C(C1)C2.Cl (racemic) | 38
35 | CC1=CC2Cc3nc4cc(Cl)ccc4c(NCCCCCCCNC(=O)c4cc(O)c5c(c4)C(=O)c4cccc(O)c4C5=O)c3C(C1)C2.Cl (racemic) | 40.6
36 | CC1=CC2Cc3nc4cc(Cl)ccc4c(NCCCCCCCCNC(=O)c4cc(O)c5c(c4)C(=O)c4cccc(O)c4C5=O)c3C(C1)C2.Cl (racemic) | 33.1
